From PMC5564600 (Oncotarget, 2017)

Legend:
Type in all cases: binding
[1] = target: T1, pseudokinase JH2 domain of JAK1 (Homo sapiens, UniProt P23458); assay: KINOMEscan, JAK1 JH2 domain; conditions: for remaining binding at 1 µM / remaining binding at 10 µM: kinase JAK1(JH2domain-pseudokinase); for remaining binding at 1 µM: read-out: % of control at 1 µM; for remaining binding at 10 µM: read-out: % of control at 10 µM
T1 construct: the pseudokinase JH2 domain of JAK1 (89%); purchased Ambit Biosciences (scanMAXX KINOMEscan)

G2019S mutant of LRRK2 = target: T2, G2019S mutant of LRRK2 (Homo sapiens, UniProt Q5S007, G2019S); assay: KINOMEscan, LRRK2 G2019S; conditions: for remaining binding at 1 µM / remaining binding at 10 µM: kinase LRRK2(G2019S); for remaining binding at 1 µM: read-out: % of control at 1 µM; for remaining binding at 10 µM: read-out: % of control at 10 µM
T2 construct: purchased Ambit Biosciences (scanMAXX KINOMEscan)

[2] = target: T3, catalytic JH1 domain of JAK1 (Homo sapiens, UniProt P23458); assay: KINOMEscan, JAK1 JH1 domain; conditions: for remaining binding at 1 µM / remaining binding at 10 µM: kinase JAK1(JH1domain-catalytic); for remaining binding at 1 µM: read-out: % of control at 1 µM; for remaining binding at 10 µM: read-out: % of control at 10 µM
T3 construct: the catalytic JH1 domains of JAK1 and JAK2; purchased Ambit Biosciences (scanMAXX KINOMEscan)

PIK3C2G = target: T4, PIK3C2G (Homo sapiens, UniProt O75747); assay: KINOMEscan, PIK3C2G; conditions: for remaining binding at 1 µM / remaining binding at 10 µM: kinase PIK3C2G; for remaining binding at 1 µM: read-out: % of control at 1 µM; for remaining binding at 10 µM: read-out: % of control at 10 µM
T4 construct: purchased Ambit Biosciences (scanMAXX KINOMEscan)
T4 sequence (O75747 1-1486): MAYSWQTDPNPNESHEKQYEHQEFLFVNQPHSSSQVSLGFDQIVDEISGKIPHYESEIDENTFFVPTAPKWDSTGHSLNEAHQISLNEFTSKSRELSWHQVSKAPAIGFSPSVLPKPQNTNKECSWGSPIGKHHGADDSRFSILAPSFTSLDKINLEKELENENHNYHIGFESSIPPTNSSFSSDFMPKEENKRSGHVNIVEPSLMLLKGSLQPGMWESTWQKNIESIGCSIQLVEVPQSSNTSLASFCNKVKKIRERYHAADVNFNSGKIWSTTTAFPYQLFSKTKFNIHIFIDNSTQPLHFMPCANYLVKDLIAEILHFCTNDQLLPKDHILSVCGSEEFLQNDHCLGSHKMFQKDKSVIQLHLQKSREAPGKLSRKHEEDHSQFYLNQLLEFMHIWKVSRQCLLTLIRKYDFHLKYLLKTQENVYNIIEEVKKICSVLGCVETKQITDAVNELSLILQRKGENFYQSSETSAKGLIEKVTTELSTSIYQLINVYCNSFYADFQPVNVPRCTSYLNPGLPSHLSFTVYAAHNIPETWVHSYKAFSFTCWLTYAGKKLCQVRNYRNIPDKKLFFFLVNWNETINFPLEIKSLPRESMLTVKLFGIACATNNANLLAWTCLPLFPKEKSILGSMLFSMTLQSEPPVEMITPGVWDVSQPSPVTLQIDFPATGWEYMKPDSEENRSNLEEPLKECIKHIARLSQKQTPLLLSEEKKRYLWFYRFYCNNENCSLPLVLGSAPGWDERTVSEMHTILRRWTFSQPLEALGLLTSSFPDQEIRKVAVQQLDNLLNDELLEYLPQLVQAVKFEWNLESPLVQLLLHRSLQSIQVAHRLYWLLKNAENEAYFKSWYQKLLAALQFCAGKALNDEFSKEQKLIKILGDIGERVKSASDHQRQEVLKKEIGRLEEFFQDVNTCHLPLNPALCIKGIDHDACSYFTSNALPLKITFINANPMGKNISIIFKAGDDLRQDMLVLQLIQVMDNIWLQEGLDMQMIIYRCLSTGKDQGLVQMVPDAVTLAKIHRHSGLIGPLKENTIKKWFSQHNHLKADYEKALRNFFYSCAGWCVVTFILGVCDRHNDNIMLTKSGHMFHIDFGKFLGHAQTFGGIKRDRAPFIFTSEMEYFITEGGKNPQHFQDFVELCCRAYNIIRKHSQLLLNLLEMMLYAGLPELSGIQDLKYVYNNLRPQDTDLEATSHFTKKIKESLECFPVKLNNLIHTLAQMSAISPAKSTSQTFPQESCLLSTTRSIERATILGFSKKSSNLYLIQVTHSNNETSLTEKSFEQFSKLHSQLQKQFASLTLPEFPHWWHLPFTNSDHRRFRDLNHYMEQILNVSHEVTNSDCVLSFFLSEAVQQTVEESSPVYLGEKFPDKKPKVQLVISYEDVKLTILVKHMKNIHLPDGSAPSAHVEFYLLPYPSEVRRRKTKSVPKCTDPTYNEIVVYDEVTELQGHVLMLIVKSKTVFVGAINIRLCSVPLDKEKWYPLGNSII

panel of 442 kinases [3] = target: panel of 442 kinases (Homo sapiens, UniProt P42336, C420R); assay: biochemical; conditions: kinase PIK3CA(C420R); 1 µM; read-out: % of control at 1 µM
panel of 442 kinases [4] = target: panel of 442 kinases (Homo sapiens, UniProt P42336, E542K); assay: biochemical; conditions: kinase PIK3CA(E542K); 1 µM; read-out: % of control at 1 µM
panel of 442 kinases [5] = target: panel of 442 kinases (Homo sapiens, UniProt P42336, E545A); assay: biochemical; conditions: kinase PIK3CA(E545A); 1 µM; read-out: % of control at 1 µM
panel of 442 kinases [6] = target: panel of 442 kinases (Homo sapiens, UniProt P42336, E545K); assay: biochemical; conditions: kinase PIK3CA(E545K); 1 µM; read-out: % of control at 1 µM
panel of 442 kinases [7] = target: panel of 442 kinases (Homo sapiens, UniProt P42336, H1047L); assay: biochemical; conditions: kinase PIK3CA(H1047L); 1 µM; read-out: % of control at 1 µM
panel of 442 kinases [8] = target: panel of 442 kinases (Homo sapiens, UniProt P42336, H1047Y); assay: biochemical; conditions: kinase PIK3CA(H1047Y); 1 µM; read-out: % of control at 1 µM
panel of 442 kinases [9] = target: panel of 442 kinases (Homo sapiens, UniProt P42336, I800L); assay: biochemical; conditions: kinase PIK3CA(I800L); 1 µM; read-out: % of control at 1 µM
panel of 442 kinases [10] = target: panel of 442 kinases (Homo sapiens, UniProt P42336, M1043I); assay: biochemical; conditions: kinase PIK3CA(M1043I); 1 µM; read-out: % of control at 1 µM
panel of 442 kinases [11] = target: panel of 442 kinases (Homo sapiens, UniProt P42336); assay: biochemical; conditions: kinase PIK3CA; 1 µM; read-out: % of control at 1 µM
panel of 442 kinases [12] = target: panel of 442 kinases (Homo sapiens, UniProt P42336, Q546K); assay: biochemical; conditions: kinase PIK3CA(Q546K); 1 µM; read-out: % of control at 1 µM

| Compound | remaining binding at 1 µM [1] [%] | remaining binding at 10 µM [1] [%] | remaining binding at 1 µM (G2019S mutant of LRRK2) [%] | remaining binding at 10 µM (G2019S mutant of LRRK2) [%] | remaining binding at 1 µM [2] [%] | remaining binding at 10 µM [2] [%] | remaining binding at 1 µM (PIK3C2G) [%] | remaining binding at 10 µM (PIK3C2G) [%] | remaining activity at 1 µM (panel of 442 kinases [3]) [%] | remaining activity at 1 µM (panel of 442 kinases [4]) [%] | remaining activity at 1 µM (panel of 442 kinases [5]) [%] | remaining activity at 1 µM (panel of 442 kinases [6]) [%] | remaining activity at 1 µM (panel of 442 kinases [7]) [%] | remaining activity at 1 µM (panel of 442 kinases [8]) [%] | remaining activity at 1 µM (panel of 442 kinases [9]) [%] | remaining activity at 1 µM (panel of 442 kinases [10]) [%] | off-target binding to PIK3C2G (PIK3C2G; 1 μM) | also measured |
| --- | --- | --- | --- | --- | --- | --- | --- | --- | --- | --- | --- | --- | --- | --- | --- | --- | --- | --- |
| Nc1cc(C(F)(F)F)c(-c2cc(N3CCOCC3)nc(N3CCOCC3)n2)cn1 [Buparlisib] | 89 | 76 | 88 | 80 | 96 | 100 | 97 | 35 | – | – | – | – | – | – | – | – | – | – |
| Cn1c(=O)n(-c2ccc(C(C)(C)C#N)cc2)c2c3cc(-c4cnc5ccccc5c4)ccc3ncc21 [Dactolisib, 2-methyl-2-[4-(3-methyl-2-oxo-8-quinolin-3-yl-2,3-dihydroimidazo[4,5-c]quinolin-1-yl)-phenyl] propionitrile] | 43 | – | 53 | – | 12 | – | 0 | – | 8.1 | 6.4 | 9.2 | 5.5 | 0.15 | 3.8 | 0 | 1.4 | – | inhibition at 1 µM ([2]; 1 μM): > 80%; inhibition at 1 µM (PIK3C2G; 1 μM): > 80% |
| COc1ncc(-c2ccc3nccc(-c4ccnnc4)c3c2)cc1NS(=O)(=O)c1ccc(F)cc1F [Omipalisib] | 57 | – | 87 | – | 100 | – | 0 | – | 0 | 0.05 | 0 | 0.1 | 5.6 | 0 | 3.8 | 0 | non-selective | remaining activity at 1 µM (panel of 442 kinases [11]): 0%; remaining activity at 1 µM (panel of 442 kinases [12]): 0.1% |
| CS(=O)(=O)N1CCN(Cc2cc3nc(-c4cccc5[nH]ncc45)nc(N4CCOCC4)c3s2)CC1 [Pictilisib, 2-(1H-indazol-4-yl)-6-(4-methanesulfonyl-piperazin-1-ylmethyl)-4-morpholin-4-yl-t hieno[3,2-d]pyrimidine] | 11 | 0.85 | 82 | 51 | 100 | 100 | 32 | 2.1 | – | – | – | – | – | – | – | – | – | inhibition at 1 µM ([1]; 1 μM): 89%; off-target activity against PIK3C2G (PIK3C2G; 10 μM): active |
| FC(F)c1nc2ccccc2n1-c1nc(N2CCOCC2)nc(N2CCOCC2)n1 [ZSTK474, 2-(difluoromethyl)-1-[4,6-di(4-morpholinyl)-1,3,5-triazin-2-yl]-1H-benzimidazole] | 100 | – | 0.3 | – | 98 | – | 0 | – | – | – | – | – | – | – | – | – | high binding affinity | binding to LRRK2 G2019S (G2019S mutant of LRRK2; 1 μM): 99.7% |
